Measured values from publication PMC3027097 (Journal of Translational Medicine, 2011).

Key:
[1] = system: bovine aortic endothelial cells (EC); assay: hFN-induced cell proliferation assay (cell number), EC; format: cell-based
Protocol: (§1) In vitro studies were performed on cell cultures of ECs or VSMCs, cultured in Dulbecco's modified Eagle's medium (DMEM; Sigma-Aldrich, Milan, Italy) as previously described and validated. Cell culture plates were filled with 10 μg/cm^2 of human fibronectin (hFN, Millipore®, Bedford, MA, USA) as described. All experiments were performed in triplicate with cells between passages 5 and 9.
(§2) Cell cultures were prepared as previously described. Briefly, cells were seeded at density of 100000 per well in six-well plates, serum starved, pre-incubated at 37°C for 30' with c(RGDf[NMe]V) or RGDechiHCit (10^-6 M). Proliferation was induced using hFN (100 μg/ml). Cell number was measured at 3, 6 and 20 h after stimulation as previously described.

[2] = system: vascular smooth muscle cells (VSMC); assay: hFN-induced cell proliferation assay (cell number), VSMC; format: cell-based
Protocol: as §1, §2

[3] = system: ERK2 phosphorylation in EC; assay: hFN-induced ERK2 phosphorylation, western blot, EC; format: cell-based; conditions: densitometry
Protocol: as §1
(§3) Immunoblot analyses were performed as previously described and validated. Mouse monoclonal antibodies to extracellular signal regulated kinase (ERK2) and phospho-ERK, anti-rabbit VEGF and actin were from Santa Cruz Biotecnology (Santa Cruz, CA, USA). Levels of VEGF were determined using an antibody raised against VEGF-165 (Santa Cruz Biotechnology). Experiments were performed in triplicate to ensure reproducibility. Data are presented as arbitrary densitometry units (ADU) after normalization for the total corresponding protein or actin as internal control.

[4] = system: ERK2 phosphorylation in VSMC; assay: hFN-induced ERK2 phosphorylation, western blot, VSMC; format: cell-based; conditions: densitometry
Protocol: as §1, §3

[5] = system: VEGF production in bovine aortic endothelial cells (ECs); assay: VEGF quantification by western blot, EC; format: cell-based; conditions: 6 hours of stimulation with hFN, peptides 10^-6 M, mean ± SEM
Protocol: VEGF production was measured as previously described [26]. Briefly, ECs were seeded at a density of 600000 per well in six well plates, serum starved overnight, seeded with c(RGDf[NMe]V) or RGDechiHCit (10^-6 M) and then stimulated with hFN for 6 hours.
Immunoblot analyses were performed as previously described and validated [23, 28]. […] Levels of VEGF were determined using an antibody raised against VEGF-165 (Santa Cruz Biotechnology) [26]. Experiments were performed in triplicate to ensure reproducibility. Data are presented as arbitrary densitometry units (ADU) after normalization for the total corresponding protein or actin as internal control [24].

[6] = system: bovine aortic endothelial cells (ECs); assay: Endothelial Matrigel assay (tube formation); format: cell-based; conditions: hFN 100 μg/ml, peptides 10^-6 M, 37°C, mean ± SEM
Protocol: The formation of network-like structures by ECs on an extracellular matrix (ECM)-like 3D gel consisting of Matrigel® (BD Biosciences, Bedford, MA, USA), was performed as previously described and validated [27, 28]. The six-well multidishes were coated with growth factor-reduced Matrigel in according to the manufacturer's instructions. ECs (5×10^4) were seeded with c(RGDf[NMe]V) or RGDechiHCit (10^-6 M), in the absence (negative control) or presence (100 μg/ml) of hFN [24]. Cells were incubated at 37°C for 24h in 1 ml of DMEM. […] Network formation was observed using an inverted phase-contrast microscope (Zeiss). Representative fields were taken, and the average of the total number of complete tubes formed by cells was counted in 15 random fields by two independent investigators.

WKY rats = assay: Wound healing assay, full-thickness skin wound; format: in vivo, rat
Protocol: (§4) Wound healing assay was performed on 14-week-old (weight 293 ± 21 g) normotensive WKY male rats (Charles River Laboratories, Calco (LC), Italy; n = 18), and Matrigel plugs experiments were carried out on 16-week-old (weight 33 ± 4 g) c57BL/6 mice (Charles River Laboratories, Milan, Italy; n = 13). All animal procedures were performed in accordance with the Guide for the Care and Use of Laboratory Animals published by the National Institutes of Health in the United States (NIH Publication No. 85- 23, revised 1996) and approved by the Ethics Committee for the Use of Animals in Research of "Federico II" University.
The rats (n = 18) were anesthetized using vaporized isoflurane (4%, Abbott) and maintained by mask ventilation (isoflurane 1.8%)[29]. The dorsum was shaved by applying a depilatory creme (Veet, Reckitt-Benckiser, Milano, Italy) and disinfected with povidone iodine scrub. […] Two operators blinded to the identity of the sample examined and measured wound areas every day, for 8 days. Direct measurements of wound region were determined by digital planimetry (pixel area), and subsequent analysis was performed using a computer-assisted image analyzer (ImageJ software, version 1.41, National Institutes of Health, Bethesda, MD, USA). Wound healing was quantified as a percentage of the original injury size. […]

c57BL/6 mice = assay: Matrigel plugs, EC infiltration by lectin staining; format: in vivo, mouse; conditions: s.c. Matrigel with VEGF and 10^-5M peptide, seven days, mean ± SEM
Protocol: as §4
Mice (n = 13), anesthetized as described above, were subcutaneously injected midway on the dorsal side, using sterile conditions, with 0.2 ml of Matrigel® basement matrix, pre-mixed with 10^-6M VEGF and 10^-5M c(RGDf[NMe]V) (n = 4), 10^-6M VEGF and 10^-5M RGDechiHCit (n = 5), or 10^-6M VEGF alone (n = 4). After seven days, mice were euthanized and the implanted plugs were harvested from underneath the skin, fixed in 10% neutral-buffered formalin solution and then embedded in paraffin. Invading ECs were identified and quantified by analysis of lectin immunostained sections, as described.
All tissues were cut in 5 μm sections and slides were counterstained with a standard mixture of hematoxylin and eosin. […]

[7] = human serum (Lonza, Basel, Switzerland); conditions: 37°C, up to 24h

Compound | EC proliferation ([1]; hFN 100 μg/ml stimulation, peptides 10^-6 M pre-incubated 30' at 37°C, after 6 hours, mean ± SEM) | EC proliferation, peptide given alone ([1]; without hFN) | VSMC proliferation ([2]; hFN 100 μg/ml stimulation, peptides 10^-6 M, mean ± SEM, NS) | VSMC proliferative response to hFN at 20h ([2]; hFN stimulation, 20h) | hFN-induced phosphorylation of ERK2 in EC [3] | hFN-induced phosphorylation of ERK2 in VSMC [4] | VEGF expression levels in EC [5] | tube formation on Matrigel [6] | wound healing (closure of full-thickness wounds) (WKY rats; pluronic gel 30% containing 10^-6 M peptide placed daily on 20 mm wound, 8 days) | wound histology (WKY rats; wounds excised 8 days after surgery) | EC infiltration of Matrigel plugs (c57BL/6 mice) | not cleaved [7]
CC(C)[C@H]1C(=O)N[C@@H](CCCNC(=N)N)C(=O)NCC(=O)N[C@@H](CC(=O)O)C(=O)N[C@H](Cc2ccccc2)C(=O)N1C [c(RGDf[NMe]V)] | +0.6 ± 0.38 fold over basal | did not affect EC proliferation | +0.9 ± 0.09 fold over basal | induced an attenuation of such proliferative response | significantly inhibited | decreased such activation | +3.19 ± 0.73 fold over basal, ADU | 14.11 ± 3.9 branches per 10000 μm^2 | slowed down healing | exhibited a retarded repair pattern | 0.185 ± 0.027 fold over VEGF alone | 
c(RGDf[NMe]V) |  |  |  |  |  |  |  |  |  |  |  | After 24h of incubation chromatogram and mass profiles failed to identify any degradation product
